In article PMC8691750, “Euphorbia Factor L2 ameliorates the Progression of K/BxN Serum-Induced Arthritis by Blocking TLR7 Mediated IRAK4/IKKβ/IRF5 and NF-kB Signaling Pathways” (Frontiers in Pharmacology, 2021):

Tests used:
[1] = tested on: synovial hyperplasia and articular inflammatory cells infiltration in knee joints; assay: Histological assessment (H&E) of knee joints of STA mice; type: in vivo, C57BL/6 mice
Method: (§1) K/BxN serum was collected from K/BxN mice at 8 weeks of age, pooled, aliquoted and stored at -20 °C. K/BxN serum-transfer arthritis (STA) model was induced by intraperitoneal (i.p.) application of 150 μL of serum at day 0. Clinical score for arthritis severity was assessed using a 0–4 point scale for each paw at various time points (0–16 total score) as described previously ([Luo et al., 2011]). 8-week old male C57BL/6 mice were purchased from Dashuo Animal Center (China, Chengdu), maintained at 25°C, and exposed to 12-h light and dark cycles. Mice were fed with standard laboratory chow and water with 1 week of acclimatization. Naive mice were used as the control group. Except the control mice, all mice were i. p. injected with 150 μL of serum, then randomly divided into the following groups and treated with different compounds daily for the consecutive 8 days: 1) STA group; 2) Solvent control group, mice were gavaged with the solvent; 3) Dexamethasone (DEX) group, mice were gavaged with 30 mg/kg DEX; 4) EFL2 group 1, mice were gavaged with 40 mg/kg EFL2; 5) EFL2 group 2, mice were intraperitoneally injected with 15 mg/kg EFL2; 6) EFL2 group 3, […] were intraperitoneally injected with 40 mg/kg EFL2. […] All animal experiments were conducted in accordance with ethical regulation for animal care and use in China.
The left knee joints were removed on day 13 post STA and fixed in 4% formaldehyde overnight at 4°C. The tissues were decalcified in EDTA and sectioned after embedding in paraffin. 5 μm sections were deparaffinized with xylene, re-hydrated with 100, 95 and 80% ethanol and then stained with hematoxylin and eosin (H&E). Histopathological changes in the knee joints were measured using a semiquantitative scoring system (0–4 scale) to assess synovial hyperplasia and articular inflammatory cells infiltration as previously described ([Yamanishi et al., 2002]).

[2] = tested on: chemokine, cytokine and TLR pathway mRNA expression in the ankles; assay: Quantitative RT-PCR of ankles of STA mice; type: in vivo, C57BL/6 mice
Method: as §1
Frozen right ankles were pulverized with liquid nitrogen and total RNA was extracted using Trizol reagent (Invitrogen). RNA was reverse transcribed into cDNA using an oligo d(T) primer. The obtained cDNA was applied for quantitative RT-PCR using SYBR Green I-dTTP (Eurogentec). Samples were analyzed in triplicate, and β-actin was used as endogenous controls. Data was analyzed using the 2^−ΔΔCt method and is expressed as “Fold change” (expression relative to housekeeping gene and normalized to reference sample).

[3] = tested on: IL-1β and IL-6 in the ankle; assay: Immunochemistry staining for IL-1β and IL-6 in ankles; type: in vivo, C57BL/6 mice; settings: STA mice; EFL2 15 or 40 mg/kg
Method: The dissected left ankles were fixed in 4% formaldehyde overnight. Embedding, de-paraffinization, and re-hydration of the ankle sections were the same as described for H&E staining. After treated with 3% […] for 10 min, the tissue sections were immersed in a 10 mM sodium citrate buffer (pH 6.0) for 15 min at 95°C, and washed with PBS. The sections were then blocked with 5% goat serum in PBS, and incubated with primary antibodies overnight at 4°C. Primary antibodies were as follows: rabbit anti-mouse IL-1β (1:600, Abcam, China); rabbit anti-mouse IL-6 (1:50, Abcam, China). The signal was visualized using an Envision System (DAKO, United States). The images were then acquired by microscopy (Leica DMil).

RAW264.7 cells = assay: Cell viability, CCK8 assay, RAW264.7; type: cell-based, mouse; settings: CCK8, 0.1-100 μM, 20 h
Method: (§2) RAW264.7 cells, a mouse macrophage cell line, were cultured in DMEM medium containing 10% fetal bovine serum (FBS), 1% penicillin-streptomycin and maintained at 37 °C in 5% CO2 humidified air. Bone marrow-derived macrophages (BMDMs) generation was performed as following description. In brief, bone marrow cells were harvested from tibias and femurs of C57BL/6 mice and differentiated for 7 days in DMEM medium supplemented with 10% FBS, 1% penicillin-streptomycin and 50 ng/ml M-CSF. For human peripheral blood mononuclear cells (PBMCs) preparation, 5 ml peripheral venous blood was obtained from healthy donors in West China Hospital. PBMCs were isolated with Human Lymphocyte Separation Medium (LTS1077, Tian Jing, China) according to the manufacturer’s instructions. The experimental protocols were performed according to the approved guidelines established by the Institutional Human Research Subject Protection Committee of the Ethics Committee of West China Hospital, Sichuan University, China.
The effects of EFL2 on RAW264.7 cells, BMDMs and PBMCs viability were evaluated by Cell Counting Kit-8 (CCK8) assay (Dojindo, Japan). […] The optical absorbance at 450 nm was read with a Biotek Eon™ microplate reader (Biotek, Vermont, United States).

[4] = tested on: TLR7 (R837) induced cytokine production in PBMCs; assay: ELISA of IL-1β and IL-6 in supernatant of R837 stimulated PBMCs; type: cell-based, human; settings: R837-stimulated human PBMCs
Method: as §2
RAW264.7 cells (5×10^5/ml), BMDMs (5×10^5/ml) and PBMCs (2×10^6/ml) were plated in 96-well plates and incubated overnight. […]
IL-4, IL-17A and TNF-α in sera from different group mice were measured using CBA Multiplex kit (BD, United States). The concentrations of IL-1β and IL-6 in serum or supernatant were detected by ELISA Kit (MULTI SCIENCES, China) according to the manufacturers’ instructions.

[5] = STA mice day 5, EFL2 40 mg/kg i.p.

C=C1C(OC(=O)c2ccccc2)CC2C(C=C(C)C(=O)C3(OC(C)=O)CC(C)C(OC(=O)c4ccccc4)C3C1OC(C)=O)C2(C)C (stereo not drawn) [EFL2, Euphorbia factor L2]
inflammatory cells infiltration and synovium hyperplasia in joints ([1]; EFL2 15 mg/kg i.p.): only partially reduced
inflammatory status and inflamed synovium in joints ([1]; EFL2 40 mg/kg i.p.): significantly inhibited
CXCL1 mRNA expression in the ankles [2, 5]: remarkably down-regulated
CXCL5 mRNA expression in the ankles [2, 5]: remarkably down-regulated
CCL3 mRNA expression in the ankles ([2]; STA mice, EFL2 15 mg/kg i.p.): only significantly decreased
CCL3 gene expression in the ankles ([2]; STA mice, EFL2 40 mg/kg i.p.): significantly reduced
mRNA expression of up-regulated TLR pathway genes (TLR7, TLR2, TLR9, Myd88, IRAK1/4, Nfkbia/ib, IRF5, Rel, Map3K7, Mapk8) in ankles ([2]; STA mice, EFL2 40 mg/kg i.p., RT-PCR): robust inhibitory effect
IL-1β mRNA expression in the ankles ([2]; STA mice, EFL2 i.p. treatment): robustly inhibited
IL-6 mRNA expression in the ankles ([2]; STA mice, EFL2 i.p. treatment): robustly inhibited
IL-1β and IL-6 production in local inflamed joints (immunohistochemical staining) [3]: could inhibit
concentration at which significant cytotoxicity is displayed (RAW264.7 cells): ≥ 25 µM
suppressive effect on IL-1β production compared with IL-6 [4]: prior to that on IL-6
